Measured values taken from patent US11179412B2, “Methods of treating conditions involving elevated inflammatory response” (University of Pittsburgh—Of the Commonwealth System of …, priority 2017, dated 2021).
“Also recorded” adds a separate entry of the source.

Columns and labels:
[1] = test system: STING activation (IFNβ release) in iBMDMs; assay: IFNβ release ELISA after STING ligand (or LPS) stimulation, iBMDMs; type: cell-based, mouse
Method in brief: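 IFNβ released into the medium was quantified by ELISA (mouse or human kit) after iBMDM stimulation with the canonical STING agonist 3′3′-cGAMP or with LPS.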

[2] = test system: STING activation (IFNβ release) in pPMs; assay: IFNβ release ELISA, primary peritoneal macrophages (pPMs); type: cell-based, mouse; conditions: 16 hours
Procedure: Mouse pPMs were isolated from C57BL/6J mice as previously described (69). In brief, eight-week-old female or male C57BL/6J mice were injected with 3.0% thioglycollate medium (2 mL/mouse) into the peritoneum. Three days after injection, mice were sacrificed and injected with 3 mL of 0.05% EDTA-PBS into the peritoneum to harvest peritoneal macrophages. Collected cells were centrifuged at 1000 rpm for 5 min at 4° C., and the cell pellet was washed with PBS and centrifuged again. The cell pellet was then suspended in Dulbecco's Modified Eagle Medium supplemented with 10% FBS and 1× Penicillin-Streptomycin and cultured in a culture dish.
(§1) Macrophages or monocytes were treated with 3′3′-cGAMP (10 μg/ml, Invitrogen) for 16 hours in the absence or presence of one compound (10 μM) from the Target-selective Inhibitory Library (#L3500, Selleck Chemicals). Commercially available enzyme-linked immunosorbent assay (ELISA) kits were used to measure the concentrations of mouse IFNβ (Thermo Fisher Scientific) or human IFNβ (Thermo Fisher Scientific) in culture medium according to the manufacturer's instructions.

[3] = test system: STING activation (IFNβ release) in RAW264.7 cells; assay: IFNβ release ELISA, RAW264.7 cells; type: cell-based, mouse; conditions: STING ligands 10 μg/ml, inhibitor 10 μM, 16 hours
Procedure: as §1

[4] = test system: STING activation (IFNβ release) in J774A.1 cells; assay: IFNβ release ELISA, J774A.1 cells; type: cell-based, mouse; conditions: STING ligands 10 μg/ml, inhibitor 10 μM, 16 hours
Procedure: as §1

[5] = test system: IFNβ mRNA in iBMDMs; assay: IFNβ mRNA Q-PCR, iBMDMs; type: cell-based, mouse; conditions: STING ligands 10 μg/ml, inhibitor 10 μM, 16 hours
Procedure: (§2) Total RNA was extracted using QIAGEN RNeasy Plus Kit according to the manufacturer's instructions. First-strand cDNA was synthesized from 1 μg of RNA using the iScript cDNA Synthesis kit (#1708890, Bio-Rad). Briefly, 20 μl reactions were prepared by combining 4 μl iScript Select reaction mix, 2 μl gene-specific enhancer solution, 1 μl reverse transcriptase, 1 μl gene-specific assay pool (20×, 2 μM), and 12 μl RNA diluted in RNase-free water. Quantitative real-time PCR was carried out using synthesized cDNA, primers, and SsoFast EvaGreen Supermix (#172-5204, Bio-Rad). The expression of target genes was calculated using the ddCt method relative to the expression of a house-keeping gene, β-actin. Data shown are the relative quantity (RQ), with RQ of the control cells set to one.

[6] = test system: IFNβ mRNA in RAW264.7 cells; assay: IFNβ mRNA Q-PCR, RAW264.7 cells; type: cell-based, mouse; conditions: STING ligands 10 μg/ml, inhibitor 10 μM, 16 hours
Procedure: as §2

[7] = test system: IFNβ mRNA in pPMs; assay: IFNβ mRNA Q-PCR, pPMs; type: cell-based, mouse; conditions: STING ligands 10 μg/ml, inhibitor 10 μM, 16 hours
Procedure: as §2

[8] = test system: iBMDMs; assay: Cell viability assay (CCK-8), iBMDMs; type: cell-based, mouse; conditions: 3′3′-cGAMP 10 μg/ml, ALK inhibitor 10 μM, 16 hours
Procedure: (§3) Cells were seeded into 96-well plates and incubated with the indicated treatments. Subsequently, 100 μl fresh medium was added to cells containing 10 μl Cell Counting Kit-8 (CCK-8) solutions (Dojindo Laboratories) and incubated for 1 h (37° C., 5% CO2). Absorbance at 450 nm was measured using a microplate reader (Tecan).

[9] = test system: pPMs; assay: Cell viability assay (CCK-8), pPMs; type: cell-based, mouse; conditions: 3′3′-cGAMP 10 μg/ml, ALK inhibitor 10 μM, 16 hours
Procedure: as §3

[10] = test system: RAW264.7 cells; assay: Cell viability assay (CCK-8), RAW264.7; type: cell-based, mouse; conditions: 3′3′-cGAMP 10 μg/ml, ALK inhibitor 10 μM, 16 hours
Procedure: as §3

[11] = test system: THP1 cells; assay: Cell viability assay (CCK-8), THP1; type: cell-based, human; conditions: 3′3′-cGAMP 10 μg/ml, ALK inhibitor 10 μM, 16 hours
Procedure: as §3

[12] = test system: STING signaling (TBK1, IRF3, p65, ALK, EGFR, AKT phosphorylation) in iBMDMs; assay: Western blot of STING pathway protein phosphorylation, iBMDMs; type: cell-based, mouse
Procedure: (§4) For immunoblotting, cells were lysed in Cell Lysis Buffer (#9803, Cell Signaling Technology) with protease inhibitor cocktail (Promega), phosphatase inhibitor cocktail (Sigma), and 1 mM Na3VO4 (70). Cleared lysates were resolved by SDS-PAGE (#3450124, Bio-Rad) and then transferred onto PVDF membranes (#1704273, Bio-Rad). The membranes were blocked with Tris-buffered saline Tween 20 (TBST) containing 5% skim milk for 1 h at room temperature and then incubated with the indicated primary antibodies (1:1000-1:5000) overnight at 4° C. After being washed with TBST, the membranes were incubated with an HRP-linked anti-mouse IgG secondary antibody (#7076, Cell Signaling Technology) or HRP-linked anti-rabbit IgG secondary antibody (#7074, Cell Signaling Technology) for 1 h at room temperature. The membranes were washed three times in TBST and then visualized and analyzed with a ChemiDoc Touch Imaging System (#1708370, Bio-Rad). The intensities of bands were analyzed with Image Lab software.

[13] = test system: STING signaling (TBK1, IRF3, p65 phosphorylation) in J774A.1 cells; assay: Western blot of STING pathway protein phosphorylation, J774A.1; type: cell-based, mouse; conditions: 10 μM
Procedure: as §4

[14] = test system: STING signaling (TBK1, IRF3, p65, ALK, EGFR, AKT phosphorylation) in THP1 cells; assay: Western blot of STING pathway protein phosphorylation, THP1; type: cell-based, human; conditions: 10 μM
Procedure: as §4

[15] = 3′3′-cGAMP 10 μg/ml, three to 16 hours

With `Cc1cc(Nc2ncc(Cl)c(Nc3ccccc3S(=O)(=O)C(C)C)n2)c(OC(C)C)cc1C1CCNCC1` [LDK378, 5-chloro-N^2-(2-isopropoxy-5-methyl-4-(piperidin-4-yl)phenyl)-N^4-[2-(propane-2-sulfonyl)-phenyl]-pyrimidine-2,4-diamine] as the compound, how does the “fold increase in IFN-β release” value [1] read?
The value was 0.08 fold.

And the “3′3′-cGAMP-induced IFNβ release” value ([1]; iBMDMs, 3′3′-cGAMP 10 μg/ml, 16 hours, compound 10 μM)?
Its value is “blocked; also recorded: diminished”.

And the “LPS-induced IFNβ release” value ([1]; iBMDMs, LPS 1 μg/ml, LDK378 10 μM, three hours)?
Its value is “inhibited”.

And the “IFNβ release induced by STING ligands” value ([1]; iBMDMs, STING ligands 10 μg/ml, inhibitor 10 μM, 16 hours)?
Its value is “inhibited”.

What about the “3′3′-cGAMP-induced IFNβ release” value ([2]; mouse pPMs, 3′3′-cGAMP 10 μg/ml, compound 10 μM) of the same compound?
Its value is “confirmed their inhibitory properties”.

What about the “IFNβ release induced by STING ligands” value ([2]; pPMs, STING ligands 10 μg/ml, inhibitor 10 μM) of the same compound?
Its value is “inhibited”.

And the “IFNβ release induced by STING ligands” value [3]?
The value was “inhibited”.

What about the “IFNβ release induced by STING ligands” value [4] of the same compound?
Its value is “inhibited”.

What about the “STING ligand-induced IFNβ mRNA expression” value [5] of the same compound?
The value was “attenuation”.

And the “STING ligand-induced IFNβ mRNA expression” value [6]?
Its value is “attenuation”.

And the “STING ligand-induced IFNβ mRNA expression” value [7]?
The value was “attenuation”.

And the cell viability [8]?
The cell viability was “did not affect cell viability”.

And the cell viability [9]?
The cell viability was “did not affect cell viability”.

And the cell viability [10]?
Its cell viability is “did not affect cell viability”.

What about the cell viability [11] of the same compound?
Its cell viability is “did not affect cell viability”.

And the “3′3′-cGAMP-induced p-TBK1” value ([12]; 3′3′-cGAMP 10 μg/ml, 10 μM, three to 16 hours)?
The value was “time-dependently reduced”.

And the “STING ligand-induced phosphorylation of TBK1, IRF3, and p65” value ([12]; 3′3′-cGAMP or c-di-AMP 10 μg/ml, 16 hours, 10 μM)?
Its value is “diminished”.

And the “LPS-induced phosphorylation of TBK1, IRF3, and p65” value ([12]; LPS 1 μg/ml, LDK378 10 μM, three hours)?
The value was “inhibited”.

And the “3′3′-cGAMP-, c-di-AMP-, and DMXAA-induced p-IRF3 and p-p65” value ([12]; ligand 10 μg/ml, 10 μM)?
Its value is “inhibited”.

And the “c-di-AMP- or DMXAA-induced p-TBK1” value ([12]; ligand 10 μg/ml, 10 μM, 16 hours)?
The value was “inhibited”.

What about the “3′3′-cGAMP- or c-di-AMP-induced phosphorylation of ALK, EGFR, and AKT” value ([12]; ligand 10 μg/ml, 16 hours, 10 μM) of the same compound?
Its value is “attenuated”.

And the “3′3′-cGAMP-induced p-TBK1” value [13, 15]?
Its value is “time-dependently reduced”.

And the “3′3′-cGAMP-, c-di-AMP-, and DMXAA-induced p-IRF3 and p-p65” value ([13]; ligand 10 μg/ml)?
The value was “inhibited”.

What about the “c-di-AMP- or DMXAA-induced p-TBK1” value ([13]; ligand 10 μg/ml, 16 hours) of the same compound?
Its value is “inhibited”.

And the “3′3′-cGAMP-induced p-TBK1” value [14, 15]?
Its value is “time-dependently reduced”.

What about the “STING ligand-induced phosphorylation of TBK1, IRF3, and p65” value ([14]; 3′3′-cGAMP or c-di-AMP 10 μg/ml, 16 hours) of the same compound?
Its value is “diminished”.

What about the “3′3′-cGAMP-, c-di-AMP-, and DMXAA-induced p-IRF3 and p-p65” value ([14]; ligand 10 μg/ml) of the same compound?
The value was “inhibited”.

And the “c-di-AMP- or DMXAA-induced p-TBK1” value ([14]; ligand 10 μg/ml, 16 hours)?
The value was “inhibited”.

And the “3′3′-cGAMP- or c-di-AMP-induced phosphorylation of ALK, EGFR, and AKT” value ([14]; ligand 10 μg/ml, 16 hours)?
The value was “attenuated”.
